Source: ChEMBL document CHEMBL1201862, “PubChem BioAssay data set” (2004)
The source made the active and inactive calls.

Experiments:
[1] = molecular target: SUMO-activating enzyme (Homo sapiens, UniProt Q9UBT2); test: SUMOylation inhibitor hit validation, confirmation, SUMOylation inhibitor project, biochemical, AlphaScreen (AID 2018); assay type: functional
[2] = molecular target: Voltage-dependent T-type calcium channel subunit alpha-1H (Homo sapiens, UniProt O95180); test: Cav3.2 T-type channel inhibitors, synthesized analogs, SAR follow-up, cell-based, synthetic library set 2, HEK293 HH8, Fluo-4 (AID 493023); assay type: functional
[3] = molecular target: Lysosomal acid glucosylceramidase (Homo sapiens, UniProt P04062); test: Dose response cell-based high throughput screening assay to identify enhancers of beta-glucosidase activity. [Related pubchem assays: 784 ]; assay type: functional
[4] = molecular target: T1, Coagulation factor XII (Homo sapiens, UniProt P00748); test: Factor XIIa Dose Response Confirmation from Single Well HTS. [Related pubchem assays (depositor defined):AID701]; assay type: functional
T1 sequence (P00748 whole entry): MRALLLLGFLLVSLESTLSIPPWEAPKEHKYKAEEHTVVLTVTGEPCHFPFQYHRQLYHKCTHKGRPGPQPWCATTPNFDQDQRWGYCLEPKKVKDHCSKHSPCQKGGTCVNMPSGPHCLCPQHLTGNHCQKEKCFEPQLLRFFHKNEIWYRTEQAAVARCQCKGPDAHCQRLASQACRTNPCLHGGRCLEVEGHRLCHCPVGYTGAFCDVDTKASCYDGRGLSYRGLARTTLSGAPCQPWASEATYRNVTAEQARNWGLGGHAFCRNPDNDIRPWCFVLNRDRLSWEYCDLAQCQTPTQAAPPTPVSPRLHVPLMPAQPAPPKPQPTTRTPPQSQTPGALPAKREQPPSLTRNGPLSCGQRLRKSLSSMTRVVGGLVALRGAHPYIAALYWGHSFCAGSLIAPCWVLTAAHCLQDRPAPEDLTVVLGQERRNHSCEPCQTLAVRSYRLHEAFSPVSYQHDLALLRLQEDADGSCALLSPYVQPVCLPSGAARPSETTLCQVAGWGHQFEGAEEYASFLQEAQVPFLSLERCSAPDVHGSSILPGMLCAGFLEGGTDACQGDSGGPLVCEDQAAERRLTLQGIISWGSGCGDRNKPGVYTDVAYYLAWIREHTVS

[5] = molecular target: Mitogen-activated protein kinase 10 (Homo sapiens, UniProt P53779); test: Dose response biochemical screening assay for inhibitors of c-Jun N-Terminal Kinase 3 (JNK3). [Related pubchem assays: 746 ]
[6] = growth suppression of PTEN-null colon cells, dose response, cell-based, HCT116 PTEN knockout (AID 1047); assay type: functional;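 also: HCT116 colon tumor cells with PTEN knocked out; cells exposed to compound for 60 hours before readout; potency for loss of cell viability measured by luminescence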
[7] = growth suppression of beta-catenin-knockout colon cells, dose response, cell-based, HCT116, human colon tumor (AID 1045); assay type: functional;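 also: HCT116 colon tumor cells with beta catenin knocked out; cells exposed to compound for 60 hours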
[8] = molecular target: Kallikrein-7 (Homo sapiens, UniProt P49862); test: Fluorescence Intensity-based biochemical primary high throughput dose response assay to identify activators of kallikrein-7 (K7) zymogen.
[9] = system: CHO; test: cytotoxicity in TLR9-MyD88 CHO cells, dose response, cytotoxicity control for TLR9-MyD88 binding inhibitor project, cell-based, luminescence (AID 588339); assay type: functional, hamster; conditions: Cricetulus griseus;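 also: CHO cells stably coexpressing TLR9 and MyD88 fusions from primary screen; compound exposure lasted 48 hours before viability readout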
[10] = molecular target: T2, Microphthalmia-associated transcription factor (Homo sapiens, UniProt O75030); test: TRPM1 promoter luciferase signal decrease, dose response, MITF inhibitor project, cell-based, SK-MEL-5, cherry-picked, set 3 (AID 493073); assay type: functional
T2 sequence (O75030 whole entry): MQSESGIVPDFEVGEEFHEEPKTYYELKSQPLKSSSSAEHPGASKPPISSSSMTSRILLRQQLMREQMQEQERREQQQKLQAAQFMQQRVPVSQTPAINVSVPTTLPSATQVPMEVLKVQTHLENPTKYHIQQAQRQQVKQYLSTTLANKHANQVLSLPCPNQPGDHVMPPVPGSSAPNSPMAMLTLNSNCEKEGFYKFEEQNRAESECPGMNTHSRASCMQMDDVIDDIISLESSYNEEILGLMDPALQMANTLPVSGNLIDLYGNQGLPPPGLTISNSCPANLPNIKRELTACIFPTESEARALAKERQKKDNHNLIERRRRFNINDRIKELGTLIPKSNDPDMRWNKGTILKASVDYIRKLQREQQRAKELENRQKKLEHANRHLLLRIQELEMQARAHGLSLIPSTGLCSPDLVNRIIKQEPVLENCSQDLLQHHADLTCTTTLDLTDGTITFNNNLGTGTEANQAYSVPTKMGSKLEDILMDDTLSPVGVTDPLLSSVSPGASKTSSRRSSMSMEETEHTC

[11] = molecular target: T3, Runt-related transcription factor 1/Core-binding factor subunit beta (Homo sapiens, UniProt Q01196+Q13951); test: inhibitors of RUNX1 Runt–CBFb-SMMHC binding, primary screen, biochemical, FRET, Cerulean-Runt, Venus-CBFb-SMMHC, uHTS (AID 1434); assay type: protein assay;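 also: partner is the CBFb-SMMHC leukemia fusion protein rather than wild-type CBFb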
[12] = molecular target: Beta Lactamase (Pseudomonas aeruginosa, UniProt Q932Y6); test: beta-lactamase reporter inhibitor potency, dose response, artefact control for TLR9-MyD88 binding inhibitor project, BLA reporter cells, FRET fluorescence (AID 588341); assay type: cell-based;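 also: cell based assay in CHO-K1 cells stably expressing beta-lactamase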
[13] = molecular target: T3, Runt-related transcription factor 1/Core-binding factor subunit beta; test: inhibitors of RUNX1 Runt–CBFb-SMMHC binding, biochemical, TR-FRET (AID 1438); assay type: protein assay
[14] = molecular target: T4, Type-1 angiotensin II receptor (Homo sapiens, UniProt P30556); test: AT1 receptor agonists, dose response, selectivity assay for APJ receptor agonist project, cell-based, uHTS hits (AID 488865); assay type: functional;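 also: beta-arrestin recruitment to AT1 measured by enzyme fragment complementation luminescence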
T4 sequence (P30556 whole entry): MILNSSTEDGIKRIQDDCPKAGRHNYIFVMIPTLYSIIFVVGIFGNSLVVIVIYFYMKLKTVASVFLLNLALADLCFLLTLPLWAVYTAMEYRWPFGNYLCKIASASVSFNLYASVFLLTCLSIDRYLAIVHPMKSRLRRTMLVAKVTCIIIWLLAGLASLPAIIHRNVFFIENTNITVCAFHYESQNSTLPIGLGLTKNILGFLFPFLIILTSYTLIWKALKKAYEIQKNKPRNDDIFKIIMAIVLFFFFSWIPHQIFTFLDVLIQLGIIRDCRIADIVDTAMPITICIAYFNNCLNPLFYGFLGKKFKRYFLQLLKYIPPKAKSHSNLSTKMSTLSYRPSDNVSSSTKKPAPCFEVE

[15] = molecular target: T5, G-protein coupled receptor 35 (Homo sapiens, UniProt Q9HC97); test: SAR analysis of Agonists of the GPR35 Receptor using an Image-Based Assay - Set 4. [Related pubchem assays (depositor defined):AID2013, AID2026]; assay type: functional
[16] = molecular target: T6, Cannabinoid receptor 1 (Homo sapiens, UniProt P21554); test: SAR analysis of agonists of the Cannabinoid Receptor 1 using an Image-Based Assay - Set 4. [Related pubchem assays (depositor defined):AID2013, AID2026]; assay type: functional
[17] = molecular target: G-protein coupled receptor 55 (Homo sapiens, UniProt Q9Y2T6); test: SAR Analysis of Selective Antagonists of GPR55 using an Image-Based Assay - Set 4. [Related pubchem assays (depositor defined):AID2013, AID2026]; assay type: functional;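 also: antagonism of response to 5 µM lysophosphatidylinositol agonist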
[18] = molecular target: T6, Cannabinoid receptor 1; test: SAR analysis of antagonists of the Cannabinoid Receptor 1 using an Image-Based Assay - Set 4. [Related pubchem assays (depositor defined):AID2013, AID2026]; assay type: functional
[19] = molecular target: T5, G-protein coupled receptor 35; test: SAR analysis of Antagonists of the GPR35 Receptor using an Image-Based Assay - Set 6. [Related pubchem assays (depositor defined):AID2013, AID2026]; assay type: functional
[20] = molecular target: Cytochrome P450 2D6 (Homo sapiens, UniProt P10635);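 also: CYP2D6 member of a cytochrome P450 panel assay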
[21] = molecular target: T7, Cannabinoid receptor 2 (Homo sapiens, UniProt P34972); test: SAR analysis of antagonists of the Cannabinoid Receptor 2 using an Image-Based Assay - Set 3. [Related pubchem assays (depositor defined):AID2013, AID2026]; assay type: functional
[22] = molecular target: Cytochrome P450 2C19 (Homo sapiens, UniProt P33261); test: Cytochrome panel assay with activity outcomes. Panel member name: p450-cyp2c19 Compounds with AC50 equal or less than 10 uM are considered active; assay type: functional; conditions: read-out: AC50
[23] = molecular target: T7, Cannabinoid receptor 2; test: SAR analysis of agonists of the Cannabinoid Receptor 2 using an Image-Based Assay - Set 3. [Related pubchem assays (depositor defined):AID2013, AID2026]; assay type: functional
[24] = molecular target: T8, E3 ubiquitin-protein ligase XIAP (Homo sapiens, UniProt P98170); test: Counter Screen using XIAP-Bir3 for Chemical Antagonists of Bir1/2 domains of IAP-family anti-apoptotic proteins. [Related pubchem assays (depositor defined):AID1018, AID1449, AID1514, AID1638, AID1749, AID1750, AID488957, AID488963]
[25] = molecular target: T8, E3 ubiquitin-protein ligase XIAP; test: XIAP antagonists, biochemical, IAP family, fluorescence polarization (AID 1018); assay type: functional
[26] = molecular target: T9, Kappa-type opioid receptor (Homo sapiens, UniProt P41145); test: SAR analysis of small molecule antagonists of the kappa opioid receptor via a luminescent beta-arrestin assay - Set 6. [Related pubchem assays (depositor defined):AID1777, AID1778, AID1785, AID1786, AID1966, AID2133, AID2136, AID2285]; assay type: functional
[27] = molecular target: Mu-type opioid receptor (Homo sapiens, UniProt P35372); test: SAR Analysis of Antagonists of the MOR Receptor using an Image-Based Assay - Set 3. [Related pubchem assays (depositor defined):AID1777, AID1785, AID1786, AID1966, AID2133, AID2136, AID2284, AID2285, AID2420]; assay type: functional
[28] = molecular target: Delta-type opioid receptor (Homo sapiens, UniProt P41143); test: SAR Analysis of Antagonists of the DOR Receptor using an Image-Based Assay - Set 3. [Related pubchem assays (depositor defined):AID1777, AID1785]; assay type: functional;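 also: U2OS cells expressing DOR1 and beta-arrestin GFP stimulated with 100 nM SNC80; imaging of GFP-tagged beta-arrestin moving into spots after receptor activation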
[29] = molecular target: T9, Kappa-type opioid receptor; test: SAR analysis of Antagonists of the Kappa Opioid Receptor (KOR) using an Image-Based Assay - Set 4. [Related pubchem assays (depositor defined):AID1777, AID1785]; assay type: functional
[30] = molecular target: T9, Kappa-type opioid receptor; test: SAR analysis of small molecule antagonists of the kappa opioid receptor via a luminescent beta-arrestin assay - Set 3. [Related pubchem assays (depositor defined):AID1777, AID1778, AID1785, AID1786, AID1966, AID2133, AID2136, AID2285, AID2495]; assay type: functional

T9 sequence (P41145 whole entry): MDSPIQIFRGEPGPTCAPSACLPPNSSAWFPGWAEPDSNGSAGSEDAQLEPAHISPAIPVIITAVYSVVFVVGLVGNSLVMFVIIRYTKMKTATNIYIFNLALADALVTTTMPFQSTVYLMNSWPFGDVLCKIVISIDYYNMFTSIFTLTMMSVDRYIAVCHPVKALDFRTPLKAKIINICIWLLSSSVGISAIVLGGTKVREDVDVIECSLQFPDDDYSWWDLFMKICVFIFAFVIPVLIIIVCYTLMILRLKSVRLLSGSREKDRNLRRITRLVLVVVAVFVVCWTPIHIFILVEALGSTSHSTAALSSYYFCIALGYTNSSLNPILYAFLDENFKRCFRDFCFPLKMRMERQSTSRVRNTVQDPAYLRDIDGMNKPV
T3 sequence (Q01196 whole entry, the tested form may be a part): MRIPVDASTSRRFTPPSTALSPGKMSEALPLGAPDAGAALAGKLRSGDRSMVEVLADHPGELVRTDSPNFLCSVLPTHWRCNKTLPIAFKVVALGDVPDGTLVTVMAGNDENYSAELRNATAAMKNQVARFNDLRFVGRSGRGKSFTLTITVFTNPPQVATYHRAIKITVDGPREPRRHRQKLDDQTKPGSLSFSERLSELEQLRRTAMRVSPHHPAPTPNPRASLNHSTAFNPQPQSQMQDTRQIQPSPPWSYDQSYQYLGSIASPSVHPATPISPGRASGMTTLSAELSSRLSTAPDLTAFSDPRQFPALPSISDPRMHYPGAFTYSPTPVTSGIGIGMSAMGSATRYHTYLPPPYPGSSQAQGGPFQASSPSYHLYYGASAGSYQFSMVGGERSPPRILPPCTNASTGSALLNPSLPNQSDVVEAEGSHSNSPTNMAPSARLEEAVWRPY
T3 sequence (Q13951 whole entry, the tested form may be a part): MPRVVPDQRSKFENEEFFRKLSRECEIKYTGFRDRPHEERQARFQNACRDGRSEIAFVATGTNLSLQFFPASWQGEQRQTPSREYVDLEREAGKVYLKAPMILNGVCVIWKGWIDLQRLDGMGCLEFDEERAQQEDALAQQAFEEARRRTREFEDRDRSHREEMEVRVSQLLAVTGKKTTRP
T8 sequence (P98170 whole entry): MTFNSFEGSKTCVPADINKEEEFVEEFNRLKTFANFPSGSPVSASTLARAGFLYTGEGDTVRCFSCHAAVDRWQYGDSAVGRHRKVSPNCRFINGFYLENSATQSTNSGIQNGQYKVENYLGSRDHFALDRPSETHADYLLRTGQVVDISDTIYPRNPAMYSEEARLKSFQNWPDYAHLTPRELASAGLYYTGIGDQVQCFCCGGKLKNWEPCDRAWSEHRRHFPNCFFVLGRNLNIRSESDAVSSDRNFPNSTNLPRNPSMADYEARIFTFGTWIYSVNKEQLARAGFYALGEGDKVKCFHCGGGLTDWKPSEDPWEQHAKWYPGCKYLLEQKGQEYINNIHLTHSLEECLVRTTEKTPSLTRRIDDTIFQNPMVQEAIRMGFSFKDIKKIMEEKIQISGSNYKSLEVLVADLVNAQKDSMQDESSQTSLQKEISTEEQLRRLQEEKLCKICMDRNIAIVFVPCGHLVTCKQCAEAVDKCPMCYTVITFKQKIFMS
T6 sequence (P21554 whole entry): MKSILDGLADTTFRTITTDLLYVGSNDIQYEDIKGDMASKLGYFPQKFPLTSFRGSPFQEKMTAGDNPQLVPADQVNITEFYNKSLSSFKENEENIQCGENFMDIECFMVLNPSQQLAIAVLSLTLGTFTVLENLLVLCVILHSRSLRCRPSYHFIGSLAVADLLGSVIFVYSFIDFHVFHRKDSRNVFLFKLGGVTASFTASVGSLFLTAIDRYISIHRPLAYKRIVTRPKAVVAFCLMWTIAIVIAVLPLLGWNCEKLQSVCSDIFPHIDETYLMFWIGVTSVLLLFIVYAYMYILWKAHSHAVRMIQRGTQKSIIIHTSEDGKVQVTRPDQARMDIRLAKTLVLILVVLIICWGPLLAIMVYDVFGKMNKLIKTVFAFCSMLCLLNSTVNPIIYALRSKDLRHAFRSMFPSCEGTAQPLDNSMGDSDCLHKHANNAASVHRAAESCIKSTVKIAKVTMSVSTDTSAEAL
T7 sequence (P34972 whole entry): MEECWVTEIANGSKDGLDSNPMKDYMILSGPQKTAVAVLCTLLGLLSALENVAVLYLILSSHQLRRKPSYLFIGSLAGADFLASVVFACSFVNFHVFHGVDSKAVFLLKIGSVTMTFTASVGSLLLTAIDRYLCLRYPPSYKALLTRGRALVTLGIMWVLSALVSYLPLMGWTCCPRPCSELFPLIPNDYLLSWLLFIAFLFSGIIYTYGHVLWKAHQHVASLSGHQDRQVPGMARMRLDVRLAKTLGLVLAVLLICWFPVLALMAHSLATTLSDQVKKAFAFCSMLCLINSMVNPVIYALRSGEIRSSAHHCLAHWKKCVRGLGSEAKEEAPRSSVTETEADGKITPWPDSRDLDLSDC
T5 sequence (Q9HC97 whole entry): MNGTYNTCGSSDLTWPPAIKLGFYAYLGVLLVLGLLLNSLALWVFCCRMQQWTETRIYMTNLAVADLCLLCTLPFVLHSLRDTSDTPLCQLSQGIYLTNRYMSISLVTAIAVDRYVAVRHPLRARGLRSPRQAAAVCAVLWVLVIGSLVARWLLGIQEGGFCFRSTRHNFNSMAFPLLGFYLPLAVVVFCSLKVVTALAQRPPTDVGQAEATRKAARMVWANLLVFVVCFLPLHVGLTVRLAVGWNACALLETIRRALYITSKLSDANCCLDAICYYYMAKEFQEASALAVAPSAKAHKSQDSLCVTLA
Lysosomal acid glucosylceramidase, sequence (P04062 whole entry): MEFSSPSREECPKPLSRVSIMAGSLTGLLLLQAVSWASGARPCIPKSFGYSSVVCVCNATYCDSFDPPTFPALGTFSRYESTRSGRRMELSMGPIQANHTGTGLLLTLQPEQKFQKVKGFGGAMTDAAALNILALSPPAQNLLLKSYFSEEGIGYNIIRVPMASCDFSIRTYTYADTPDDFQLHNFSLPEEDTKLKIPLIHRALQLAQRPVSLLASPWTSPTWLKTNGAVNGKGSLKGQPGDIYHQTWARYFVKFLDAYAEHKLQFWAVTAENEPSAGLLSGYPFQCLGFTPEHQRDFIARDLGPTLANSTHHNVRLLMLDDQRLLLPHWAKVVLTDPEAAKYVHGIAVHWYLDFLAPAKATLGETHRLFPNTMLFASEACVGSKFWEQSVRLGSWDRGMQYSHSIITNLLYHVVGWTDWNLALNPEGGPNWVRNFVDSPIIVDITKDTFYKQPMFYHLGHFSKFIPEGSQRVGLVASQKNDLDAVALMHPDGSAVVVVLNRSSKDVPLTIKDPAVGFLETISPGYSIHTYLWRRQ
Beta Lactamase, sequence (Q932Y6 whole entry): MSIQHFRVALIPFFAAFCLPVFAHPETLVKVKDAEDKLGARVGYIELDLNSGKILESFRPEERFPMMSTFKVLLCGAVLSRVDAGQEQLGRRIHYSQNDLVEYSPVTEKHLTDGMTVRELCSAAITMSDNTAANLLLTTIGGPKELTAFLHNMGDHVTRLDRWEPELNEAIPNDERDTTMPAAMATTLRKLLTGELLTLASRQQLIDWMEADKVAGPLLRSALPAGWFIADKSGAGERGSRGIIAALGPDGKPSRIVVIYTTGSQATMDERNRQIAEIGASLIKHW
Delta-type opioid receptor, sequence (P41143 whole entry): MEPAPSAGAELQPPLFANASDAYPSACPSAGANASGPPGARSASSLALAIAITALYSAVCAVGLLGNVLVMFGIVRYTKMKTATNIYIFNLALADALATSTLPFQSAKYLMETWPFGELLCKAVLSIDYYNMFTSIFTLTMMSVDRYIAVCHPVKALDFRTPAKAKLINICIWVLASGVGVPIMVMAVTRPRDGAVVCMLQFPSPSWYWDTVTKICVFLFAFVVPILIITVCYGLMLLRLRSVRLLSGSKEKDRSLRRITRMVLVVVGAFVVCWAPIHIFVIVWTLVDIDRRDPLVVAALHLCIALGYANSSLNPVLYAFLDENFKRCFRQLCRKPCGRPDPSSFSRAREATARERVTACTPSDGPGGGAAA
SUMO-activating enzyme, sequence (Q9UBE0 whole entry): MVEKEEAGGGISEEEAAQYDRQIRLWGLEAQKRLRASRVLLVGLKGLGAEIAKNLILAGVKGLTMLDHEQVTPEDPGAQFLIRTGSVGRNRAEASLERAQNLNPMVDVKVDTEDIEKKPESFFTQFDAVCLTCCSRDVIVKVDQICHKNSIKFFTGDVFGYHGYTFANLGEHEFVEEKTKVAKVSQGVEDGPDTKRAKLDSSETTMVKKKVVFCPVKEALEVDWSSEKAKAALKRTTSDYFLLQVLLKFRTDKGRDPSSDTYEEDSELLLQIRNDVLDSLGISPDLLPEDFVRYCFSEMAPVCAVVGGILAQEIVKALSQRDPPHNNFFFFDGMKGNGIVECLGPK
SUMO-activating enzyme, sequence (Q9UBT2 whole entry): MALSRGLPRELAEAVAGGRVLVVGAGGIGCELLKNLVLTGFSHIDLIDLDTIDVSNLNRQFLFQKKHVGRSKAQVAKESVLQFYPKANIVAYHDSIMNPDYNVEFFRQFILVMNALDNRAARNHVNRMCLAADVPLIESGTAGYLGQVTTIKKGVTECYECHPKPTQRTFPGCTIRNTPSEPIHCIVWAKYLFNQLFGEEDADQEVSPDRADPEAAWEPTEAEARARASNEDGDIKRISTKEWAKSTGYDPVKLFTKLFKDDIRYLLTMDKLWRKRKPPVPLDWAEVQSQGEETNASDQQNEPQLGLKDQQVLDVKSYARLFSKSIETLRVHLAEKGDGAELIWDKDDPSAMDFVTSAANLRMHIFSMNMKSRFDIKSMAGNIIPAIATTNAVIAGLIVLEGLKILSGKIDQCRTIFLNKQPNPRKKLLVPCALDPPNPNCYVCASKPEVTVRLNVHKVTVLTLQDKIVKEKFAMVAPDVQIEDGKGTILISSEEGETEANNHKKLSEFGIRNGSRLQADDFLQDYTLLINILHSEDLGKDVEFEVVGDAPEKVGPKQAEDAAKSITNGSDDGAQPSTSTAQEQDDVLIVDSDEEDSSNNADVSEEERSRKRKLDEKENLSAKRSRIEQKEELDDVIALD

In the case of `COc1ccc(NC2=NC(=O)/C(=C\c3ccco3)S2)cc1`, the IC50 [1] is reported as 9.8 µM (active).
In the case of `O=C(COc1ccc(F)cc1Cl)N[C@H]1CCCN(Cc2ccccc2)C1`, the EC50 [2] is reported as 10 µM (active).
For `COc1ccc(C(=O)n2nc(-c3ccccc3)nc2N)cc1OC`, the EC50 [3] was > 10 µM (not active), the IC50 [4] was 2.6 µM (active) and the IC50 [5] was 19.2 µM (not active).
In the case of `OCCNc1c2ccccc2nc2c(F)c(F)c(F)c(F)c12`, the EC50 [6] is reported as 3.83 µM (active), the EC50 [7] is reported as 2.16 µM (active) and the EC50 [8] is reported as > 69.5 µM (inactive). For the same molecule, the IC50 [9] was 3.97 µM (active), the AC50 [10] was 4.14 µM (active) and the IC50 [11] was 38.7 µM (active). For the same molecule, the IC50 [12] was 2.27 µM (active) and the IC50 [13] was > 100 µM (inactive).
In the case of `CCSc1nc(O)c(CC)c(=O)n1C(C)CC` (stereo not given), the EC50 [14] is reported as > 100 µM (inactive).
In the case of `N=c1c(C(=O)NC2CCCC2)cc2c(=O)n3ccccc3nc2n1C1CCCC1`, the EC50 [15] is reported as > 32 µM (inactive), the EC50 [16] is reported as > 32 µM (inactive) and the IC50 [17] is reported as > 32 µM (inactive). The IC50 [18] was > 32 µM (inactive), the IC50 [19] was > 32 µM (inactive) and the AC50 [20] was 3.55 µM (inconclusive). The IC50 [21] was > 32 µM (inactive), the AC50 [22] was 11.2 µM (inconclusive) and the EC50 [23] was > 32 µM (inactive).
For `Cc1ccc(-c2cc(C(=O)NC3=NCCS3)c3ccccc3n2)cc1C`, the IC50 [24] was > 100 µM (inactive) and the IC50 [25] was > 100 µM (not active).
In the case of `Cc1ccnc2c1n1cccc1c(=O)n2CC(=O)NCCCN1CCN(c2ccc3c(c2)OCO3)CC1`, the IC50 [26] is reported as 0.482 µM (active), the IC50 [27] is reported as 17.2 µM (inactive) and the IC50 [28] is reported as > 32 µM (inactive). For the same molecule, the IC50 [29] was 0.0451 µM (active) and the IC50 [30] was 0.369 µM (active).
